Like-named read-outs stand apart in the source and are kept apart here.
Assays:
A1 receptor = molecular target: T1, A1 receptor (Rattus norvegicus, UniProt P25099); experiment: A1 adenosine receptor binding, displacement of 3H-CHA, whole rat brain membranes; conditions: 3H-CHA displacement, 25° C., 60 minutes
T1 construct: using a membrane preparation of whole rat brain; from tissue; host or cells: whole rat brain membranes
T1 sequence (P25099 1-326): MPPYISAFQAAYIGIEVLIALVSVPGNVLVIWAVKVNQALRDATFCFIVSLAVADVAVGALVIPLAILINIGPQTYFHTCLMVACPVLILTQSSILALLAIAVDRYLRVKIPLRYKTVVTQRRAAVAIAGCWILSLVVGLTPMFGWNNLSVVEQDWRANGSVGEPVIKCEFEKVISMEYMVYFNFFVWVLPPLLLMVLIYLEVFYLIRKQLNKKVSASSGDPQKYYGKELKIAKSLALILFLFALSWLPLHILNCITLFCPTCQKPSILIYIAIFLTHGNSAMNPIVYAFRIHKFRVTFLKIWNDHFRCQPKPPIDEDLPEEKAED
Method: Non-specific binding is assessed in the presence of 1 mM theophylline.
(§1) The assays are run in glass test tubes in duplicate at 25° C. Once the membranes are added, the tubes are vortexed and incubated at 25° C. for 60 minutes (A1 assay) or 90 minutes (A2 assay) on a rotary shaker. The assay tubes are vortexed halfway through the incubation and again near the end. The assays are terminated by rapid filtration through 2.4 cm GF/B filters using a Brandel Cell Harvestor. The test tubes are washed three times with cold 50 mM tris-HCl (pH 7.7 or 7.4), with filtration being completed within 15 seconds. The damp filter circles are placed in glass scintillation vials filled with 10 ml of Aquasol II (New England Nuclear). The vials are allowed to shake overnight on a rotary shaker and are placed into a liquid scintillation analyzer for two minute counts. IC50 values for receptor binding, i.e. the concentration at which a compound of Formula I displaced the radiolabeled standard, are obtained using a curve-fitting computer program (RS/1, Bolt, Beranek and Newman, Boston, Mass.).

A2 receptor = molecular target: T2, A2 receptor (Rattus norvegicus, UniProt P30543); experiment: A2 adenosine receptor binding, displacement of 3H-CGS 21680, rat brain striatum membranes; conditions: 3H-CGS 21680 displacement, rat brain striatum membranes, 25° C., 90 minutes; read-out: Adenosine Receptor Binding Activity/IC50 (nM) A2
T2 construct: using membranes from rat brain striatum; from tissue; host or cells: rat brain striatum membranes
Method: Non-specific binding is assessed in the presence of 20 μm 2-chloroadenosine.
as §1

swine coronary arteries = experiment: In vitro vasorelaxation in isolated swine coronary arteries; format: cell-based
Method: Swine coronary arteries are obtained from a local slaughter house, dissected carefully and cleaned of fat, blood and adhering tissue. Rings approximately 2-3 mm wide are cut and transferred to water-jacketed tissue baths (10 mL) filled with warm (37° C.), oxygenated (O2/CO2:95%/5%) Krebs-Henseleit buffer and mounted on L-shaped hooks between stainless steel rods and a force transducer. […] PGF2a, before being exposed to 3 μM PGF2a.

[1] = Sus scrofa, read-out: Vasorelaxation in Swine Coronary Artery/IC50 (μM)
[2] = 50% reduction in tension of rings contracted with 3 μM PGF2a, read-out: Vasorelaxation in Swine Coronary Artery/IC50

T2 sequence (P30543 whole entry): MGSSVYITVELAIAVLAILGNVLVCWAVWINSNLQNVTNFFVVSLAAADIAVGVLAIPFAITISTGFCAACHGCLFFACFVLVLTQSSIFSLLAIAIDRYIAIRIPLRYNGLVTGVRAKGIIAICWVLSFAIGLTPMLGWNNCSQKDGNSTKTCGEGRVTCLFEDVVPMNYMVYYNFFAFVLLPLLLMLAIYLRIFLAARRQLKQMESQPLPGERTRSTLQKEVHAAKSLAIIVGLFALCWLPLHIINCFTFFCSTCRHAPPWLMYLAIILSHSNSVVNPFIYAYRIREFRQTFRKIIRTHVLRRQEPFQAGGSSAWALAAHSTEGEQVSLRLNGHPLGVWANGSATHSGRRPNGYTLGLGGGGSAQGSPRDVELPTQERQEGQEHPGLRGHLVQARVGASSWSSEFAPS

IC50 (A1 receptor) [nM] | IC50 (A2 receptor) [nM] | IC50 (swine coronary arteries; [2]) [µM] | Compound | IC50 (swine coronary arteries; [1]) [µM]
417 | > 1000 |  | CCNC(=O)C1CC(n2cnc3c(NCCc4ccsc4)ncnc32)C(O)C1O (racemic) [Example 28, (±)-N^6-[1-(thiopen-3-yl)ethan-2-yl]carbocyclic adenosine-5′-N-ethyl carboxamide] | 
8.8 | 43.4 | 0.493 | CCNC(=O)[C@H]1C[C@@H](n2cnc3c(N[C@@H](C)Cc4ccc(Cl)s4)ccnc32)[C@H](O)[C@@H]1O (relative stereo) [Example 36, [1S-[1a,2b,3b,4a(S*)]]-4-[7-[[2-(5-chloro-2-thienyl)-1-methylethyl]amino]-3H-imidazo[4,5-b]pyridin-3-yl]-N-ethyl-2,3-dihydroxycyclopentanecarboxamide] | 
3.98 | 46.8 |  | CCNC(=O)C1CC(n2cnc3c(NC(CC)Cc4sccc4Cl)ccnc32)C(O)C1O (single isomer, unassigned) [Example 39, [1S-[1a,2b,3b,4a(S*)]]4-[7-[[2-(3-chloro-2-thienyl)-1-ethylethyl]amino]-3H-imidazo[4,5-b]pyridin-3-yl]-N-ethyl-2,3-dihydroxycyclopentane-carboxamide] | 
3.8 | > 1000 |  | OC[C@H]1O[C@@H](n2cnc3c(NCCSc4nc5ccccc5s4)ncnc32)[C@H](O)[C@@H]1O [Example 10, N^6-[2-(2′-thiobenzothiazolyl)-ethyl]adenosine] | 
79.4 | > 1000 |  | Cc1nc(CCNc2ncnc3c2ncn3[C@@H]2O[C@H](CO)[C@@H](O)[C@H]2O)cs1 [Example 14, N^6-[2-(2′-methyl-4′-thiazolyl)-ethyl]adenosine] | 
1.7 | > 1000 |  | OC[C@H]1O[C@@H](n2cnc3c(NCCc4nc(-c5ccccc5)cs4)ncnc32)[C@H](O)[C@@H]1O [Example 16, N^6-[2-(4′-phenyl-2′-thiazolyl)-ethyl]adenosine] | 
67.6 | 5250 | 18.8 | CC(C)(Cc1cccs1)Nc1ncnc2c1ncn2[C@@H]1O[C@H](CO)[C@@H](O)[C@H]1O [Example 17, N^6-[2-(1,1-dimethyl-2′-thiophenyl)ethyl]adenosine] | 
36 | 1000 | 0.75 | OC[C@H]1O[C@@H](n2cnc3c(NCc4nc(-c5ccccc5)cs4)ncnc32)[C@H](O)[C@@H]1O [Example 19] | 
3.98 | 158 |  | CC(Cc1nccs1)Nc1ncnc2c1ncn2[C@@H]1O[C@H](CO)[C@@H](O)[C@H]1O (stereo partly shown) [Example 20, N^6-[1-(thiazol-2-yl)prop-2-yl]-adenosine] | 
0.09 | 14.8 |  | CCC(Cc1ccc(Cl)s1)Nc1ncnc2c1ncn2[C@@H]1O[C@H](CO)[C@@H](O)[C@H]1O (stereo partly shown) [Example 21, N^6-[1-(5″-chlorothien-2″-yl)-2-butyl]adenosine] | 
0.03 | 8.9 |  | CCC(Cc1sccc1Cl)Nc1ncnc2c1ncn2[C@@H]1O[C@H](CO)[C@@H](O)[C@H]1O (stereo partly shown) [Example 31, N^6-[1-ethyl-2-(3-chlorothien-2-yl)ethyl]adenosine] | 
 | 45 |  | C[C@H](Cc1sccc1Cl)Nc1ncnc2c1ncn2[C@@H]1O[C@H](CO)[C@@H](O)[C@H]1O [Example 32, N^6-[1-methyl-2-(3-chlorothien-2-yl)ethyl]adenosine] | 
14.2 | 158 |  | CCNC(=O)[C@H]1C[C@@H](n2cnc3c(N[C@H](CC)Cc4ccc(Cl)s4)ccnc32)[C@H](O)[C@@H]1O [Example 41] | 
55 | 331 | 0.316 | (2S)-2a,3a-dihydroxy-4β-[N6-[2-(5-chloro-2-thienyl)-(1R)-1-methylethyl]amino-9-adenyl]cyclopentane-1β-N-ethylcarboxamide-2,3-carbonate [Example 44] | 

Continued, compound first:

Compound | IC50 (A1 receptor) [nM] | IC50 (A2 receptor) [nM] | IC50 (swine coronary arteries; [2]) [µM] | IC50 (swine coronary arteries; [1]) [µM]
CCNC(=O)C1CC(n2cnc3c(NCCc4nccs4)ncnc32)C(O)C1O (racemic) [Example 25, (±)-N^6-[2-(2″-thiazolyl)ethyl]-carbocyclic adenosine-5′-N-ethyl carboxamide] | 1260 | 355 |  | 0.64
CCNC(=O)[C@H]1O[C@@H](n2cnc3c(NC4CC=CCC4c4cccs4)ncnc32)[C@H](O)[C@@H]1O (single isomer, unassigned) [Example 5, N6-[trans-2-(thiophen-2-yl)cyclohex-4-en-1-yl]adenosine-5′-N-ethylcarboxamide] | 4.26 | 91 |  | 0.068
CCNC(=O)[C@H]1O[C@@H](n2cnc3c(NC4CC=CCC4c4cccs4)ncnc32)[C@H](O)[C@@H]1O (single isomer, unassigned) [Example 22, N^6-[trans-2-(thiophen-2-yl)-cyclohex-4-en-1-yl]adenosine-5-N-ethyl carboxamide] | 2.69 | 29.5 |  | 0.1
CCNC(=O)C1CC(n2cnc3c(N[C@H](C)Cc4ccc(Cl)s4)ncnc32)C2OC(C)(C)OC12 (single isomer, unassigned; (-)) [6(1)] | > 1000 | > 1000 | 19.1 | 
CCNC(=O)C1CC(n2cnc3c(NC(C)Cc4cccs4)ncnc32)C(O)C1O (single isomer, unassigned; (-)) [Example 27] | 5.01 | 29.5 |  | 0.043
CCNC(=O)C1CC(n2cnc3c(N[C@H](CC)Cc4sccc4Cl)ncnc32)C(O)C1O (single isomer, unassigned; (-)) [Example 34] | 1.6 | 23 | 0.072 | 
CCNC(=O)[C@H]1C[C@@H](n2cnc3c(N[C@H](C)Cc4ccc(Cl)s4)[n+]([O-])cnc32)[C@H](O)[C@@H]1O [Example 35, (2S)-2a,3a-dihydroxy-4β-[N6-[2-(5-chloro-2-thienyl)-(1R)-1-methylethyl]amino-9-adenyl]cyclopentane-1β-N-ethylcarboxamide-N^1-oxide] | 1090 | 6350 |  | 3.3
CCNC(=O)[C@H]1C[C@@H](n2cnc3c(NC(CC)Cc4sccc4Cl)ccnc32)[C@H](O)[C@@H]1O (stereo partly shown) [Example 37] | 16.2 | 110 |  | 0.45
CCNC(=O)[C@H]1C[C@@H](n2cnc3c(N[C@H](C)Cc4ccc(Cl)s4)ncnc32)[C@H](OC(=O)OC)[C@@H]1OC(=O)OC [Example 42, (2S)-2a,3a-bis-methoxycarbonyloxy-4β-[N6-[2-(5-chloro-2-thienyl)-(1R)-1-methylethyl]amino-9-adenyl]cyclopentane-1β-N-ethylcarboxamide] | > 1000 | > 10000 |  | 2.44
CCNC(=O)[C@H]1C[C@@H](n2cnc3c(N[C@H](C)Cc4ccc(Cl)s4)ncnc32)[C@@H]2OC(OCC)O[C@@H]21 (stereo partly drawn) [Example 43, (2S)-2a,3a-dihydroxy-4β-[N6-[2-(5-chloro-2-thienyl)-(1R)-1-methylethyl]amino-9-adenyl]cyclopentane-1β-N-ethylcarboxamide ethoxymethylene acetal] | 8430 | > 10000 |  | 7.83
CCNC(=O)[C@H]1C[C@@H](n2cnc3c(N[C@H](C)Cc4ccc(Cl)s4)ncnc32)[C@H](OC(=O)NC)[C@@H]1OC(=O)NC [Example 45] | 6350 | > 10000 |  | 4.1
CO[C@@H]1[C@H](O)[C@@H](CO)O[C@H]1n1cnc2c(N[C@H](C)Cc3sccc3Cl)ncnc21 [Example 47, N^6-[2-(3-chloro-2-thienyl)-(1R)-1-methylethyl]-2′-O-methyladenosine] | 23 | 2820 |  | 5.7
